The subject of assay [1] is Platelets (Human). Kind of assay: Platelet aggregation in platelet-rich plasma from healthy human donors. The format is cell-based. The following applies: for EC50 / Kb: Table 7; for EC50: read-out: EC50 Platelets aggreg; for Kb: antagonist, read-out: KB Platelets aggreg. As for the experimental part: (§1) Activity at different prostanoid receptors was measured in vitro in isolated smooth muscle preparations. FP-activity was measured as contraction of the isolated feline iris sphincter. EP1-activity was measured as contraction of the longitudinal smooth muscle of the isolated guinea pig ileum. EP3-activity was measured as inhibition of the twitch response induced by electrical field stimulation in the isolated guinea pig was deferens and as contraction of the longitudinal smooth muscle of the isolated chick ileum. TP-vasoconstrictor activity was measured as contraction of rings of the isolated rat thoracic aorta. Effects on platelets from healthy human donors were measured by incubating platelet-rich plasma with the compounds described herein. Inhibition of aggregation was determined by the ability of the compounds described herein to inhibit platelet aggregation in platelet-rich plasma induced by 20 μM ADP.

Assay [2] in a line: Dog intraocular pressure, topical dosing, applanation pneumatonometry. Type of assay: in vivo. Particulars: for Intraocular pressure change: dog, dose 0.1%. As for the experimental part: (§2) The compounds were prepared at the said concentrations in a vehicle comprising 0.1% polysorbate 80 and 10 mM TRIS base. Dogs and monkeys were treated by administering 25 ul to the ocular surface, the contralateral eye received vehicle as a control. Intraocular pressure was measured by applanation pneumatonometry. Experiments were performed with dogs and monkeys. Dog intraocular pressure was measured immediately before drug administration and at 2, 4 and 6 hour thereafter. Additional studies in monkeys were performed over a 5 day period and drug was administered at times 0, 6, 24, 30, 48, 54, 72, 78, and 96 hours. Monkey intraocular pressure was recorded just before drug administration on each day and at the 2 and 4 hour time intervals between dosing.

The nature of assay [3]: Monkey intraocular pressure, topical dosing over 5 days, applanation pneumatonometry. The format is in vivo. Also noted: Intraocular pressure change: unit not given beside the values. The following applies: for Intraocular pressure change: monkey, dose not given. The protocol: as §2
Assay [4] has as its system HPRP. The following applies: in words; cited from earlier work.
Assay [5] addresses T1, TP-receptor (vascular, TPVASC) (Rattus norvegicus, UniProt P34978).
T1 construct: measured in vitro in isolated smooth muscle preparations; from tissue; host or cells: rings of isolated rat thoracic aorta
T1 sequence (P34978 1-341): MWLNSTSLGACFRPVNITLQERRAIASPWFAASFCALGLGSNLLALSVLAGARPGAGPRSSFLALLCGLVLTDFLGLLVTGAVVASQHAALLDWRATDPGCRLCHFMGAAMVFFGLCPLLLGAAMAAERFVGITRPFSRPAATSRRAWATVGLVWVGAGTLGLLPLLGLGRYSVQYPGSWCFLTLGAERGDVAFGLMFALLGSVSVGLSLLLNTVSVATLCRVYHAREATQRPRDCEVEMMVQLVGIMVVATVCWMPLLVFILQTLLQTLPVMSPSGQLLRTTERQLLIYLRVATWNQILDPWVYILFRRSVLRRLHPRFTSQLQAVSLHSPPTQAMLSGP
Kind of assay: TP-vasoconstrictor activity: contraction of rings of isolated rat thoracic aorta, without or with SQ29,548. Particulars: for EC50 / Kb: Table 7; for EC50: read-out: EC50 (Rat Aorta); for Kb: antagonist. As for the experimental part:
as §1
In addition, inhibition by the thromboxane A2-receptor antagonist SQ29,548 ([1S-[1α, 2α (5Z), 3α, 4α]]-7-[3-[[2-[phenylamino)carbonyl]-hydrazino]methyl]-7-oxabicyclo[2.2.1] hept-2-yl]-5-heptenoic acid) of vasoconstrictor activity was investigated.

Assay [6] has as its system vasculature. Particulars: in words; cited from earlier work.
Assay [7] deals with platelets. Particulars: in words; cited from earlier work.

Consider 11 compounds from US20030109571A1, “Thromboxane ligands without blood clotting side effects” (ALLERGAN SALES, INC., priority 1993, published 2003).

Marks after values point to notes of the source that are not given here.

Regarding “9,11-dideoxy-9α,11α-methanoepoxy prostaglandin F2α [Example U-46619, reference compound]”, the EC50 in assay [1] was determined as 320 nM. Besides, the “Agonist response, platelet aggregation” value in assay [1] (agonist alone at 3.3 × 10-7) is 97.7 ± 1.6 % of max response; in assay [1] (agonist alone at 10-6), 100.0 ± 1.9 % of max response; in assay [1] (agonist alone at 10-7), −7.0 + 1.1 % of max response; in assay [1] (agonist alone at 10-8), 0 % of max response. The Intraocular pressure change entry was “+0.86” in assay [2] (2 HR after dosing); “+1.75” in assay [2] (4 HR after dosing); “+2.7” in assay [2] (6 HR after dosing); 0 in assay [3] (0 HR); 2.0 in assay [3] (2 HR); 0.3 in assay [3] (4 HR). This compound gave an Intraocular pressure change in assay [3] (6 HR) of 1.0. Also, the “Effect on intraocular pressure” value is reported as “increase in intraocular pressure” in assay [2] (dogs, in words) and “increase in intraocular pressure” in assay [3] (monkeys, in words).
As for `CCCCCC(/C=C/C1C2CC(OC(=O)O2)C1C/C=C\CCCC(=O)OCc1ccccc1)OC(=O)C(C)(C)C` (stereo not drawn) [Example 11, 7-16-carbobenzoxy-2-cis-hexenyl]-6-[3α-pivaloyloxy-1-trans-octenyl]-3-oxo-2,4-dioxobicyclo[3.2.11 octane], the Intraocular pressure change in assay [2] (2 HR after dosing) is reported as −6.9**; in assay [2] (4 HR after dosing), −7.7**; in assay [2] (6 HR after dosing), −9.4**. Also, the “Effect on HPRP” value in assay [4] is “no effect”.
In the case of `CCCCCC(/C=C/C1C2CC(OC(=O)O2)C1C/C=C\CCCC(=O)O)OC(=O)C(C)(C)C` (stereo not drawn) [Example 12, 7-[6-carboxy-2-cis-hexenyl]-6-[3α-pivaloyloxy-1-trans-octenyl]-3-oxo-2,4-dioxobicyclo [3.2.1] Octane], the Intraocular pressure change is given as −3.8** in assay [2] (2 HR after dosing), −4.7** in assay [2] (4 HR after dosing) and −6.9** in assay [2] (6 HR after dosing). In addition, the “Effect on HPRP” value in assay [4] is listed as “no effect”.
As for `CCCCCC(/C=C/C1C2CC(OC(=O)O2)C1C/C=C\CCCC(=O)O)O[Si](C)(C)C(C)(C)C` (stereo not drawn) [Example 16, 7-[6-carboxy-2-cis-hexenyl]-6-[3α-t-butyldimethylsilyloxy-1-trans-octenyl]-3-oxo-2,4-dioxobicyclo [3.2.1] octane], in assay [5] (in words), the “Activity in contracting vascular smooth muscle” value is “pronounced activity”. For the same compound, in assay [1] (in words), the “Ability to cause platelet aggregation” value is reported as “no or minimal ability”. Further, the “Action on the vasculature” value in assay [6] is on record as “weak vasoconstrictor activity”. In addition, the Action on platelets entry in assay [7] is on record as “No effect”.
Turning to I-BOP [reference compound], the EC50 in assay [5] is 2 nM; in assay [1] it was 214 nM.
Consider “Pinane thromboxane A2 [reference compound]”, for which the EC50 in assay [5] came to 203 nM; in assay [1] it was 950 nM.
Take “[1R-[1α, 4α, 5β(Z), 6α(1E, 3S*)-7-[6-(3-hydroxy-1-octenyl)-2-oxabicyclo[2.2.1]hept-5-yl]-5-hepten-1-ol [Example 19]”: the EC50 in assay [5] came to 26 nM.
Consider “[1S-[1α, 2α (5Z), 3α, 4α]]-7-[3-[[2-[phenylamino)carbonyl]-hydrazino]methyl]-7-oxabicyclo[2.2.1] hept-2-yl]-5-heptenoic acid [SQ29,548, reference compound]”, for which the Kb in assay [5] amounted to 1.6 nM; in assay [1] it was 30.6 nM.
For “[1S-[1α, 2α(5Z), 3α, 4α]]-7-[3-[2(phenylamino)carbonyl]-hydrazino]methyl]-7-oxabicyclo [2.2.1]hept-2-yl]-5-hepten-1-ol [Example 22]”, in that order: 18.2 nM and 4500 nM.
“[1S-[1α, 2α(Z), 3β(1E, 3S*), 4α]]-7-[3-(3-hydroxy-4-(4-iodophenoxy)-1-butenyl]-7-oxabicyclo[2.2.1]hept-2-yl]-5-hepten-1-ol [Example 21]”: the EC50 in assay [5] came out at 0.4 nM.
The same measure, in the same setting: the same measure for “[1S-[1α, 2β(Z), 3(1E, 3R*), 5α]]-7-[3-(3-hydroxy-1-octenyl)-6,6-dimethylbicyclo[3.1.1]hept-2-yl]-5-hepten-1-ol [Example 20]”: 929 nM.

As usually defined, the EC50 is the concentration needed to bring the measured effect to its halfway point. Broadly, the Kb is the affinity of an antagonist, worked out from how it opposes an agonist.
